System: BET proteins
Experiment: BET protein inhibition, assay not specified
Conditions: comparison of chiral HPLC peaks

Cc1noc(C)c1-c1ccc2[nH]c(=O)n3c2c1OCC3c1ccccc1 (single isomer, unassigned) [Example 1A, 7-(3,5-Dimethylisoxazol-4-yl)-4-phenyl-4,5-dihydroimidazo[1,5,4-de][1,4]benzoxazin-2(1H)-one]
relative activity of separated enantiomers: more active
